“Also recorded” adds a separate entry of the source. Read-outs that look alike come from different tables or passages of the source.
System: bacteria, fungi, and/or yeasts
Type: binding
[1] = microorganism(s) the targeting peptide binds, as listed in Table 2
[2] = microorganism(s) listed as target(s) of the targeting peptide, wrapped target lists given cell by cell
[3] = microorganism(s) that the targeting peptide binds, as listed in Table 2

Substance	Target(s) [1]	Target(s) [2]	other results
1T-195 (AASGFTYCASNGVWHPY)	S. mutans	–	–
1T-77 (EMRISRIILDFLFLRKK)	S. pneumoniae	–	–
PF-075 (FVNSLIMKDLSDNDMRFKYEYYNREKDT)	–	M. luteus, E. coli, P. aeruginosa,; also recorded: MRSA, C. jeikeium	–
PF-048 (LYFAFKKYQERVNQAPNIEY)	–	S. epidermidis, M. luteus, E. coli,; also recorded: MRSA, C. jeikeium, C. jejuni	–
1T-283 (LCTKLEDKQRGRIPAELFIISPIKILERNDAL)	–	A. naeslundii, F. nucleatum, P. gingivalis,; also recorded: T. denticola, S. epidermidis,; also recorded: S. gordonii, S. mitis,; also recorded: S. mutans, S. oralis, S. salivarious,; also recorded: S. sanguinis	–
1T-175 (GEPGSHSGDL)	A. naeslundii, F. nucleatum, P. gingivalis,; also recorded: S. epidermidis, S. gordonii,; also recorded: S. mitis, S. mutans, S. oralis,; also recorded: S. salivarious, S. sanguinis	–	–
PF-101 (DPVPERQEQACACHRTAKPGK)	–	S. mutans	–
1T-160 (AQYKYINKLLN)	A. naeslundii, F. nucleatum, P. gingivalis,; also recorded: T. denticola, S. gordonii,; also recorded: S. mitis, S. mutans, S. oralis,; also recorded: S. salivarious, S. sanguinis	–	–
1T-91 (TSVRPGAAGAAVPAGAAGAAGAGWRWP)	S. mitis, S. mutans, S. oralis, S. sanguinis	–	–
1T-9 (WAWAESPRCVSTRSNIHALAFRVEVAALT)	M. xanthus	–	–
PF-099 (EIIAYLEGRFANA)	–	S. epidermidis, M. luteus, E. coli,; also recorded: C. jeikeium	–
1T-66 (DTDCLSRAYAQRIDELDKQYAGIDKPL)	S. mutans, S. aureus, S. epidermidis,; also recorded: C. jeikeium, C. xerosis,; also recorded: C. striatum, P. aeruginosa	–	–
PF-C180 (TVEELDKAFTWGAAAALAIGVIAINVGLAAGYCYNNNDVF)	–	–	Target(s) [3]: F. nucleatum, P. gingivalis, S. mutans,; also recorded: T. denticola
1T-53 (SDILAEMFEKGELQTLVKDAAAKANA)	P. aeruginosa	–	–
1T-155 (LKLAFGVYPFQAMSQSDTAVSERNVLWR)	A. naeslundii, F. nucleatum, P. gingivalis,; also recorded: S. epidermidis, S. gordonii,; also recorded: S. mitis, S. mutans, S. oralis,; also recorded: S. salivarious, S. sanguinis	–	–
PF-035 (SFYESY)	–	S. epidermidis, M. luteus, E. coli,; also recorded: C. albicans, MRSA, C. jeikeium,; also recorded: C. jejuni	–
1T-149 (SVRAVKPIDETVARHFPGDFIVN)	A. naeslundii, F. nucleatum, P. gingivalis,; also recorded: T. denticola, S. gordonii,; also recorded: S. mitis, S. mutans, S. oralis,; also recorded: S. salivarious, S. sanguinis	–	–
1T-122 (GAIPDPVTHRVDWEEDHQTRPSR)	S. mitis	–	–
PF-026 (SIHFIN)	–	S. epidermidis, M. luteus, P. mirabilis,; also recorded: C. albicans, MRSA, E. faecalis,; also recorded: C. jeikeium	–
1T-172 (FEGLKNLLGDDII)	A. naeslundii, F. nucleatum, P. gingivalis,; also recorded: S. epidermidis, S. gordonii,; also recorded: S. mitis, S. mutans, S. oralis,; also recorded: S. salivarious, S. sanguinis	–	–
PF-060 (HSSHL)	–	C. albicans hyphae; also recorded: E. coli, C. albicans, C. jeikeium	–
1T-55 (NHKTLKEWKAKWGPEAVESWATLLG)	C. xerosis, P. aeruginosa	–	–
PF-C091 (ASNTPRFVRLTLFNFYSKIWNVTHLFLFNNL)	–	–	Target(s) [3]: A. naeslundii, F. nucleatum, P. gingivalis,; also recorded: S. mutans, T. denticola
1T-277 (IYYMRFVNKPLEKTFFKI)	–	A. naeslundii, F. nucleatum, P. gingivalis,; also recorded: T. denticola, S. gordonii,; also recorded: S. mitis, S. mutans, S. oralis,; also recorded: S. salivarious, S. sanguinis	–

Substance	Target(s) [1]	Target(s) [2]	other results
PF-C085 (KKFKIFVIINWFYHKYIILNFEENF)	–	–	Target(s) [3]: A. naeslundii, F. nucleatum, P. gingivalis,; also recorded: S. mutans, T. denticola
1T-82 (FGVGVGIALFMAGYAIGKDLRKKFGKSC)	S. pneumoniae	–	–
1T-273 (YNEPNYKWLESYKIYKQRCEDRTGMYYTEET)	–	F. nucleatum, P. gingivalis, T. denticola,; also recorded: S. mitis, S. mutans, S. oralis	–
PF-617 (PMNAAEPE)	–	yeast and hyphal forms	–
1T-265 (GMFENLLMINFQIMNDLKIEIVVKDRICAV)	–	A. naeslundii, F. nucleatum, P. gingivalis,; also recorded: S. epidermidis, S. gordonii,; also recorded: S. mitis, S. mutans, S. oralis,; also recorded: S. salivarious, S. sanguinis	–
1T-96 (VAGACAQPFGGQ)	S. gordonii, S. mitis, S. mutans,; also recorded: S. oralis, S. sanguinis	–	–
1T-80 (GGNLGPGFGVIIP)	S. pneumoniae	–	–
PF-150 (EIQAKGTG)	–	S. epidermidis, MRSA	–
PF-021 (FSLNFSKQKYVTVN)	–	yeast and hyphal forms; also recorded: S. epidermidis, M. luteus, P. mirabilis,; also recorded: E. coli, C. albicans, E. faecalis,; also recorded: C. jeikeium	–
PF-157 (HTAVVWLAGVSGCVALSHCEPA)	–	S. epidermidis, M. luteus, P. mirabilis,; also recorded: E. coli, P. aeruginosa,; also recorded: C. albicans, MRSA, S. pneumoniae,; also recorded: E. faecalis, C. jeikeium,; also recorded: C. jejuni	–
Rv3760 (GLITVFAGTARILQLRRAAKKTHAAALR)	–	C. albicans	–
PF-135 (PPARPARIPQTPTLHGASLFRQRS)	–	S. epidermidis, M. luteus, E. coli,; also recorded: P. aeruginosa, MRSA, C. jeikeium,; also recorded: M. smegmatis	–
1T-144 (IIELHPKSWTQDWRCSFL)	A. naeslundii, F. nucleatum, P. gingivalis,; also recorded: T. denticola, S. gordonii,; also recorded: S. mitis, S. mutans, S. oralis,; also recorded: S. salivarious, S. sanguinis	–	–
1T-118 (TASPPAPSDQGLRTAFPATLLIALAALARISR)	A. naeslundii, F. nucleatum, P. gingivalis,; also recorded: S. epidermidis, S. gordonii,; also recorded: S. mitis, S. mutans, S. oralis,; also recorded: S. salivarious, S. sanguinis	–	–
PF-034 (EPKKKHFPKMESASSEP)	–	M. luteus	–
1T-103 (AQFYEAIITGYALGAGQRIGQL)	A. naeslundii, F. nucleatum, P. gingivalis,; also recorded: S. epidermidis, S. gordonii,; also recorded: S. mitis, S. mutans, S. oralis,; also recorded: S. sanguinis	–	–
PF-146 (GCGKRRIITKSASRDTR)	–	S. epidermidis, M. luteus, P. aeruginosa,; also recorded: C. albicans, MRSA,; also recorded: C. jeikeium	–
1T-225 (RRSLGNSASFAEWIEYIRYLHYIIRVQFIHFFSKNKKI)	A. naeslundii, F. nucleatum, P. gingivalis,; also recorded: S. epidermidis, S. gordonii,; also recorded: S. mitis, S. mutans, S. oralis,; also recorded: S. salivarious, S. sanguinis	–	–
1T-218 (KLIFAALGLVFLLIGLRDSRSK)	F. nucleatum, S. sanguinis	–	–
1T-64 (QTVHHIHMHVLGQRQMHWPPG)	S. aureus, S. epidermidis, C. jeikeium,; also recorded: C. xerosis, C. striatum,; also recorded: P. aeruginosa	–	–
1T-196 (KPEKEKLDTNTLMKVVNKALSLFDRLLIKFGA)	F. nucleatum, S. sanguinis	–	–
1T-169 (FARVRRLHQNRILTQPLTNLKYCLRQPIYSD)	A. naeslundii, F. nucleatum, P. gingivalis,; also recorded: S. epidermidis, S. gordonii,; also recorded: S. mitis, S. mutans, S. oralis,; also recorded: S. salivarious, S. sanguinis	–	–
1T-47 (VIKISVPGQVQMLIP)	S. mutans, S. epidermidis, P. aeruginosa	–	–
1T-288 (RWVGGEPSADIYLSAKDTKT)	–	F. nucleatum, S. gordonii, S. salivarious,; also recorded: S. sanguinis	–

Substance	Target(s) [1]	Target(s) [2]	other results
1T-11 (RISE)	S. mutans, S. epidermidis, P. aeruginosa	–	–
1T-12 (FGNIFKGLKDVIETIVKWTAAK)	C. xerosis, C. striatum, S. epidermidis,; also recorded: S. mutans	–	–
PF-C075 (KALVISVFAIVFSIIFVKFFYWRDKK)	–	–	Target(s) [3]: A. naeslundii, F. nucleatum, P. gingivalis,; also recorded: S. mutans, T. denticola
1T-63 (EPLILKELVRNLFLFCYARALR)	S. aureus, S. epidermidis, C. jeikeium,; also recorded: C. xerosis, C. striatum,; also recorded: P. aeruginosa	–	–
1T-159 (IFSLHHFALICSEMGTFAVSKRAKYKWEVL)	P. gingivalis	–	–
PF-629 (GLAAIATVFALY)	–	yeast and hyphal forms	–
PF-C068 (LNLFASI)	–	–	Target(s) [3]: A. naeslundii, F. nucleatum, S. mutans
PF-S003 (ALALLKQDLLNFEGRGRIITSTYLQFNEGCVP)	–	yeast and hyphal forms	Target(s) [3]: S. epidermidis, M. luteus, P. mirabilis,; also recorded: E. coli, P. aeruginosa,; also recorded: C. albicans, MRSA, S. pneumoniae,; also recorded: E. faecalis, C. jeikeium,; also recorded: C. jejuni, M. smegmatis
1T-297 (RSLRLNNALTKLPKLWYNRIKEAFYAYNDYDK)	–	A. naeslundii, F. nucleatum, T. denticola,; also recorded: S. mitis, S. mutans, S. oralis	–
1T-217 (MLSNVLSRSVVSPNVDIPNSMVILSPLLISISNYH)	F. nucleatum, S. sanguinis	–	–
1T-106 (DALRRSRSQGRRHR)	S. gordonii, S. mitis, S. mutans,; also recorded: S. oralis, S. salivarious	–	–
1T-302 (IIIILPKIYLVCKTV)	–	A. naeslundii, P. gingivalis, S. epidermidis,; also recorded: S. gordonii, S. mitis,; also recorded: S. mutans, S. oralis, S. salivarious,; also recorded: S. sanguinis	–
PF-137 (VLGKGHDLLDVGKTALKSRVFAWLGGS)	–	S. epidermidis, P. mirabilis, S. pneumoniae,; also recorded: C. jeikeium, C. jejuni	–
PF-786 (LSERERRRLKRGII)	–	–	Target(s) [3]: Mycobacteria spp.
1T-8 (FSVAACGEQRAVTFVLLIEDLI)	M. xanthus	–	–
1T-57 (RLEYRRLETQVEENPESGRRPMRG)	P. aeruginosa	–	–
PF-C271 (FFPSYYSIIITYF)	–	–	Target(s) [3]: A. naeslundii, F. nucleatum, P. gingivalis,; also recorded: S. mutans, T. denticola
1T-59 (AVGNNLGKDNDSGHRGKKHRKHKHR)	S. aureus, S. epidermidis, P. aeruginosa	–	–
PF-S018 (GMPQIPRLRI)	–	yeast and hyphal forms	Target(s) [3]: S. epidermidis, M. luteus, C. albicans,; also recorded: MRSA, E. faecalis, C. jeikeium,; also recorded: C. jejuni
PF-X (TFFRLFNRSFTQALGK)	–	–	Target(s) [3]: S. mutans
1T-23 (PALVDLSNKEAVWAVLDDHS)	S. mutans, P. aeruginosa	–	–
1T-19 (PGAFRNPQMPRG)	S. aureus, S. epidermidis, P. aeruginosa	–	–
1T-300 (PLIISKAQIKMSGDILGSCFKLFYLRPFF)	–	S. salivarious, S. sanguinis; also recorded: A. naeslundii, F. nucleatum, P. gingivalis,; also recorded: S. epidermidis, S. gordonii,; also recorded: S. mitis, S. mutans, S. oralis,	–
